Results as given in ChEMBL document CHEMBL4616687, “Ligand Design for Cereblon Based Immunomodulatory Therapy” (ACS Med Chem Lett, 2020).

The molecules below were run against Bromodomain-containing protein 4 (Homo sapiens, UniProt O60885) (assay: Inhibition of BRD4 bromodomain 2 (unknown origin) in HEK293 cells cotransfected with eGFP by flow cytometry based mCherry reporter gene analysis).
Format: cell-based
`O=C1CCC(N2Cc3c(NC(=O)CNc4ccnc(N5CCC[C@@H]5CO)n4)cccc3C2=O)C(=O)N1` (stereo not given in full) gave an IC50 of 1.6 µM.
Work on `Nc1ccnc2c(C(=O)NC3CCC(=O)NC3=O)cccc12` (stereo not given) yielded an IC50 of 7.7 µM.
`CN(c1ccccc1)c1nccc(NCC(=O)Nc2cccc3c2CN(C2CCC(=O)NC2=O)C3=O)n1` (stereo not given) was tested, and the IC50 was 3.44 µM.
`Nc1ccc(C(=O)NC2CCC(=O)NC2=O)c2ncccc12` (stereo not given) showed an IC50 of 2.9 µM.
`O=C1CCC(N2Cc3c(NC(=O)CNc4ccnc(N5CCN(c6cccc(C(F)(F)F)c6)CC5)n4)cccc3C2=O)C(=O)N1` (stereo not given) showed an IC50 of 0.517 µM.
